Source: patent US20050080046A1, “Storage stable eplerenone formulation” (priority 2002, published 2005)
Values after ≈ are worked out from the molar mass of the structure shown.

Tests used:
[1] = Solubility of eplerenone in pure solubilizers at room temperature; type: physicochemical; conditions: organic solvent or mixture
Method: Preparation of a pharmaceutically acceptable parenteral eplerenone formulation is therefore made difficult by the fact that (a) the solubility of eplerenone in many otherwise parenterally acceptable solubilizers, even in such solubilizers in pure form, is very low, (b) eplerenone dose requirements are relatively high (e.g. about 50 mg/day or more), and (c) the concentration and/or total amount of many parenterally acceptable solubilizers which can be safely parenterally delivered to a subject is relatively low.

[2] = Storage stability of eplerenone solution formulations SF-2 to SF-5 at different pH, HPLC (Example 2); type: physicochemical; conditions: storage at various temperatures and for various time periods
Text: The pH of each formulation was adjusted as indicated.
Aliquots of each solution formulation were stored at four different temperatures for a period of 12 weeks. Degradation of eplerenone was monitored via high performance liquid chromatography (HPLC) throughout storage.
Cells in Table 3 which have the symbol “--” therein indicate that no stability data was collected for that particular time and storage temperature.

Compound `COC(=O)[C@@H]1CC2=CC(=O)CC[C@]2(C)[C@@]23O[C@@H]2C[C@@]2(C)[C@@H](CC[C@@]24CCC(=O)O4)[C@H]13` [eplerenone, methyl hydrogen 9,11α-epoxy-17α-hydroxy-3-oxopregn-4-ene-7α,21-dicarboxylate, γ-lactone] has a solubility ([1]; pure glycerin, room temperature) of less than 1600 µg/mL, a solubility ([1]; pure polyethylene glycol 400, room temperature) of 3300 to 5700 µg/mL (≈ 7.96 to 13.8 mM) and a solubility ([1]; pure propylene glycol, room temperature) of less than 300 µg/mL. For the same compound, the “stability of eplerenone in solution by pH (in words)” value [2] was “more stable in a solution maintained at a pH of 5 than at a pH of 2, 7 or 9”.
